Results published in US20250032524A1, “BROAD SPECTRUM AMINOGLYCOSIDES AND USES THEREOF” (REVAGENIX, INC., priority 2022, published 2025).

Experiments:
Assay in all cases: MIC broth microdilution (CLSI)
Format in all cases: cell-based
[1] = test system: S. aureus; details: for MIC: Staphylococcus aureus
In short: (§1)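 CLSI broth microdilution in cation-adjusted Mueller-Hinton broth, 2-fold compound dilutions, final inoculum 5×10^5 CFU/mL. Incubation in ambient air at 35° C for 18-24 h; MIC = lowest concentration preventing visible growth (OD600 <0.05), with QC strains and neomycin as reference.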

[2] = test system: S. enterica; details: Salmonella enterica, read-out: Activity (MIC)
In short: as §1

[3] = test system: P. mirabilis; details: Proteus mirabilis; strain APMI1048, MDR Clinical isolate (CDC CRE panel), CDC AR Bank 0159
In short: as §1

[4] = test system: C. freundii; details: Citrobacter freundii, read-out: Activity (MIC)
In short: as §1

[5] = ATCC29213, strain NSAU001, wild-type, QC, ATCC 29213
[6] = strain NSAU1004, MDR Clinical isolate
[7] = strain NSAU1015, MDR Clinical isolate
[8] = strain NSAU1023, MDR Clinical isolate
[9] = strain NSAU1063, MDR Clinical isolate

Compound | MIC [1, 5] | MIC [1, 6] | Activity (MIC) [1, 7] | Activity (MIC) [1, 8] | Activity (MIC) [1, 9] | MIC [2] | MIC [3] | MIC [4]
NC[C@@H]1CC[C@@H](N)[C@@H](O[C@@H]2[C@@H](N)[C@H](O)[C@@H](NC(=O)[C@@H](O)[C@H](F)CN)[C@H](O)[C@H]2O[C@@H]2O[C@H](CO)[C@@H](O[C@H]3O[C@@H](CN)[C@@H](O)[C@H](O)[C@H]3N)[C@H]2O)O1 [Compound 1, (2R,3R)-4-amino-N-((1R,2S,3S,4R,5R,6S)-3-amino-5-(((2S,3R,4S,5R)-4-(((2R,3R,4R,5S,6S)-3-amino-6-(aminomethyl)-4,5-dihydroxytetrahydro-2H-pyran-2-yl)oxy)-3-hydroxy-5-(hydroxymethyl)tetrahydrofuran-2-yl)oxy)-4-(((2R,3R,6S)-3-amino-6-(aminomethyl)tetrahydro-2H-pyran-2-yl)oxy)-2,6-dihydroxycyclohexyl)-3-fluoro-2-hydroxybutanamide] | < 16 mg/L | < 16 mg/L | + (MIC threshold for positive activity (+) is ≤16 μg/mL) | + (MIC threshold for positive activity (+) is ≤16 μg/mL) | + (MIC threshold for positive activity (+) is ≤16 μg/mL) | < 16 mg/L | < 16 mg/L | < 16 mg/L
NCC[C@H](O)C(=O)N[C@@H]1[C@@H](O)[C@H](N)[C@@H](O[C@H]2O[C@H](CN)CC[C@H]2N)[C@H](O[C@@H]2O[C@H](CO)[C@@H](O[C@H]3O[C@@H](CN)[C@@H](O)[C@H](O)[C@H]3N)[C@H]2O)[C@H]1O [Compound 2, (S)-4-amino-N-((1R,2S,3S,4R,5R,6S)-3-amino-5-(((2S,3R,4S,5R)-4-(((2R,3R,4R,5S,6S)-3-amino-6-(aminomethyl)-4,5-dihydroxytetrahydro-2H-pyran-2-yl)oxy)-3-hydroxy-5-(hydroxymethyl)tetrahydrofuran-2-yl)oxy)-4-(((2R,3R,6S)-3-amino-6-(aminomethyl)tetrahydro-2H-pyran-2-yl)oxy)-2,6-dihydroxycyclohexyl)-2-hydroxybutanamide] | < 16 mg/L | < 16 mg/L | + (MIC threshold for positive activity (+) is ≤16 μg/mL) | + (MIC threshold for positive activity (+) is ≤16 μg/mL) | + (MIC threshold for positive activity (+) is ≤16 μg/mL) | < 16 mg/L | < 16 mg/L | < 16 mg/L
C[C@H](N)[C@@H]1CC[C@@H](N)[C@@H](O[C@@H]2[C@@H](N)[C@H](O)[C@@H](NC(=O)[C@@H](O)[C@H](F)CN)[C@H](O)[C@H]2O[C@@H]2O[C@H](CO)[C@@H](O[C@H]3O[C@@H](CN)[C@@H](O)[C@H](O)[C@H]3N)[C@H]2O)O1 [Compound 3, (2R,3R)-4-amino-N-((1R,2S,3S,4R,5R,6S)-3-amino-4-(((2R,3R,6S)-3-amino-6-((S)-1-aminoethyl)tetrahydro-2H-pyran-2-yl)oxy)-5-(((2S,3R,4S,5R)-4-(((2R,3R,4R,5S,6S)-3-amino-6-(aminomethyl)-4,5-dihydroxytetrahydro-2H-pyran-2-yl)oxy)-3-hydroxy-5-(hydroxymethyl)tetrahydrofuran-2-yl)oxy)-2,6-dihydroxycyclohexyl)-3-fluoro-2-hydroxybutanamide] | < 16 mg/L | < 16 mg/L | + (MIC threshold for positive activity (+) is ≤16 μg/mL) | + (MIC threshold for positive activity (+) is ≤16 μg/mL) | + (MIC threshold for positive activity (+) is ≤16 μg/mL) | < 16 mg/L | < 16 mg/L | < 16 mg/L
C[C@H](N)[C@@H]1CC[C@@H](N)[C@@H](O[C@@H]2[C@@H](N)[C@H](O)[C@@H](NC(=O)[C@@H](O)CCN)[C@H](O)[C@H]2O[C@@H]2O[C@H](CO)[C@@H](O[C@H]3O[C@@H](CN)[C@@H](O)[C@H](O)[C@H]3N)[C@H]2O)O1 [Compound 6, (S)-4-Amino-N-((1R,2S,3S,4R,5R,6S)-3-Amino-4-(((2R,3R,6S)-3-Amino-6-((S)-1-Aminoethyl)Tetrahydro-2H-Pyran-2-Yl)Oxy)-5-(((2S,3R,4S,5R)-4-(((2R,3R,4R,5S,6S)-3-Amino-6-(Aminomethyl)-4,5-Dihydroxytetrahydro-2H-Pyran-2-Yl)Oxy)-3-Hydroxy-5-(Hydroxymethyl)Tetrahydrofuran-2-Yl)Oxy)-2,6-Dihydroxycyclohexyl)-2-Hydroxybutanamide] | < 16 mg/L | < 16 mg/L | + (MIC threshold for positive activity (+) is ≤16 μg/mL) | + (MIC threshold for positive activity (+) is ≤16 μg/mL) | + (MIC threshold for positive activity (+) is ≤16 μg/mL) | < 16 mg/L | < 16 mg/L | < 16 mg/L
